In patent publication US4910152A, “Method for binding opioid receptors” (priority 1986, dated 1990):
“Also recorded” adds a separate entry of the source. Where two headings read alike, the source gives them in different places.

Legend:
[1] = target: T1, opioid receptors in rat brain membrane preparations (Rattus norvegicus, UniProt P33535)
Procedure: (§2) The data was analyzed, using the program LIGAND of Munson and Rodbard.

[2] = target: T1, opioid receptors in rat brain membrane preparations; test: 3H-DHM displacement from rat brain membranes (Example 4 method); conditions: for Hill coefficient / binding activity in synaptosomal membranes (in words): 3H-DHM displacement; for binding activity in synaptosomal membranes (in words): rat brain synaptosomal membranes
Procedure: as §2

[3] = target: opioid receptor sites (3H-DALE); test: Site selectivity displacement, 3H-DALE indicator (with cold DHM); type: binding; conditions: 0.43 nM cold DHM and 0.43 nM DALE*; determined graphically
Description: In FIG. 1 it will be noted that compounds which displace the two indicator ligands differently provide a curve which is convex towards the axis of the labeled indicator ligand which is less favorably displaced.

[4] = system: guinea pig ileum longitudinal muscle preparation; test: Electrically stimulated guinea pig ileum longitudinal muscle (Example 5); type: cell-based
Procedure: 6-FN was tested for activity on an electrically stimulated guinea pig ileum longitudinal muscle preparation. In this test, a specimen of guinea pig ileum was stretched between two wires in a nutrient solution (2.5 mil.) and stimulated supramaximally at 0.1 Hz. In the absence of opioid agonists and antagonists electrical stimulation of the muscle results in contraction.

[5] = target: T1, opioid receptors in rat brain membrane preparations; test: biochemical
Procedure: as §2

mouse vas deferens = target: T2, mouse vas deferens (Mus musculus, UniProt P32300); test: Mouse vas deferens bioassay, single dose method, DALE agonist (Example 12); type: cell-based; conditions: for inhibitory effect on the contractions (in words) / duration / reversibility of antagonism in the m.v.d. (in words): m.v.d.; for opioid antagonism, m.v.d.: m.v.d. bioassay; for inhibition of DALE-induced contractions of the m.v.d.: 25-1000 nM, all doses tested; for Relative potency, bioassay M.V.D.: Ke of naloxone in m.v.d. taken to be 1; for t1/2 (half-time of recovery), mouse vas deferens: geometric mean (95% confidence limits); for reversal of antagonism by naloxone, m.v.d.: naloxone up to 10,000 nM; for M.V.D./G.P.I. (relative affinity): ratio of m.v.d. to G.p.i. relative potency
T2 construct: Each of several samples of mouse vas deferens (m.v.d.); tissue A-Lab, Solna, Sweden (mice); host or cells: vas deferens of male NMRI mice

[6] = target: T3, guinea-pig ileum myenteric plexus-longitudinal muscle (Cavia porcellus, UniProt A0ACM8Q262); test: Guinea-pig ileum myenteric plexus-longitudinal muscle bioassay, single dose method, normorphine agonist (Example 12); type: cell-based; conditions: for opioid antagonism, G.p.i.: G.p.i. bioassay; for Relative potency, bioassay G.P.I.: Ke of naloxone in m.v.d. taken to be 1; for reversal of antagonism by naloxone, G.p.i.: addition of naloxone; for duration of action in the G.p.i. (in words): compared with parent opioids; for t1/2 (half-time of recovery), guinea-pig M. plexus / Kb: geometric mean (95% confidence limits); for Kb: agonist normorphine, read-out: Ke (dissociation constant), guinea-pig M. plexus
T3 construct: normorphine as agonist

[7] = target: T4, delta-type opioid binding sites (Rattus norvegicus, UniProt P33533); test: Delta-site binding, 1 nM [3H]-DALE with 30 nM DAGO, rat brain membranes; conditions: for Relative potency, binding assay Delta: Ki of naloxone in inhibiting 3H-DALE taken to be 1; for Relative affinity, delta: Ki^-1 x 100 / sum of Ki^-1 values; for delta affinity / selectivity (in words): delta-type opioid receptors
T4 construct: Rat brain membranes were prepared; from tissue; host or cells: rat brain membranes
Procedure: (§1) Rat brain membranes were prepared and binding assays performed as previously described by Neil, A. in "Detection and characterization of four opioid binding sites in the mouse brain," Acta Pharmacol. Tox. 56: 108-116 (1985).

[8] = target: T5, mu-type opioid binding sites (Rattus norvegicus, UniProt P33535); test: Mu-site binding, 0.2 nM [3H]-dihydromorphine, rat brain membranes; conditions: for Relative potency, binding assay Mu: Ki of naloxone in inhibiting 3H-DALE taken to be 1; for Relative affinity, mu: Ki^-1 x 100 / sum of Ki^-1 values; for Ki: [3H]-DHM, read-out: Ki, mu (inhibition of binding)
T5 construct: Rat brain membranes were prepared; from tissue; host or cells: rat brain membranes
Procedure: as §1

[9] = target: T6, kappa-type opioid binding sites (Rattus norvegicus, UniProt P34975); test: Kappa-site binding, 1 nM [3H]-(±)-EKC with 200 nM DAGO and DADL, rat brain membranes; conditions: for Relative potency, binding assay Kappa: Ki of naloxone in inhibiting 3H-DALE taken to be 1; for Relative affinity, kappa: Ki^-1 x 100 / sum of Ki^-1 values
T6 construct: Rat brain membranes were prepared; from tissue; host or cells: rat brain membranes
Procedure: as §1

opioid receptors = conditions: Hahn, Pasternak et al.; cited from earlier work
[10] = feeding induced by 2-deoxy-D-glucose; cited from earlier work

T4 sequence (P33533 whole entry): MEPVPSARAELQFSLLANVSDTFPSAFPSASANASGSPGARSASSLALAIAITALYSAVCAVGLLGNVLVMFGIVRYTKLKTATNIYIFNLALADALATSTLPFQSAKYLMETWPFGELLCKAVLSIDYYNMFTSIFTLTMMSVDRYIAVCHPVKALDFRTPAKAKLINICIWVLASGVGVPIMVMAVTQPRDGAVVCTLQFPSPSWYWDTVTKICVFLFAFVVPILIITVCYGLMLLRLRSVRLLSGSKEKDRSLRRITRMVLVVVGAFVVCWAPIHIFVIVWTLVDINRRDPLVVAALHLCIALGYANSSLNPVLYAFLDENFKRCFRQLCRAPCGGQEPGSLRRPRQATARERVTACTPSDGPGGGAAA
T3 sequence (A0ACM8Q262 1-400): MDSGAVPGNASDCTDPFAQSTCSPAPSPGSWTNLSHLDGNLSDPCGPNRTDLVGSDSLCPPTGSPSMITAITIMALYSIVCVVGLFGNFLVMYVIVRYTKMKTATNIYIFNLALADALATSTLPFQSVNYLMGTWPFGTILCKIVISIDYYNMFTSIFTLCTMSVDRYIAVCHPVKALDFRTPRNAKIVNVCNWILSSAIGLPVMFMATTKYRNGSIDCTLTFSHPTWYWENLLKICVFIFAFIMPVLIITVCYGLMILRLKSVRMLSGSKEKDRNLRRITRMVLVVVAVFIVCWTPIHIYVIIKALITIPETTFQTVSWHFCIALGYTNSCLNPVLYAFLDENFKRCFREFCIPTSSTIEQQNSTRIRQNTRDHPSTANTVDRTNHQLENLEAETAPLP
T5 sequence (P33535 whole entry): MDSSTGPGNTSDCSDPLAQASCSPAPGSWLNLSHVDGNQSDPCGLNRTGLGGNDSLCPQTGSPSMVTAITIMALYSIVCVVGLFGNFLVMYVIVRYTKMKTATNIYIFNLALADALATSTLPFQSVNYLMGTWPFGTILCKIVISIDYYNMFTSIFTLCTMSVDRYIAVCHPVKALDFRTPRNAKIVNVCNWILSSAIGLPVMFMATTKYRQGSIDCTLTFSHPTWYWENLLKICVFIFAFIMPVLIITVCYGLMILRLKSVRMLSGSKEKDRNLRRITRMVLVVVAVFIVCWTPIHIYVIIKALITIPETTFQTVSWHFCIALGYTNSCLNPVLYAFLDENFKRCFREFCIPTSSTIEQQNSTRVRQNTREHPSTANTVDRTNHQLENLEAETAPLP
T1 sequence (P33535 whole entry): as above
T6 sequence (P34975 whole entry): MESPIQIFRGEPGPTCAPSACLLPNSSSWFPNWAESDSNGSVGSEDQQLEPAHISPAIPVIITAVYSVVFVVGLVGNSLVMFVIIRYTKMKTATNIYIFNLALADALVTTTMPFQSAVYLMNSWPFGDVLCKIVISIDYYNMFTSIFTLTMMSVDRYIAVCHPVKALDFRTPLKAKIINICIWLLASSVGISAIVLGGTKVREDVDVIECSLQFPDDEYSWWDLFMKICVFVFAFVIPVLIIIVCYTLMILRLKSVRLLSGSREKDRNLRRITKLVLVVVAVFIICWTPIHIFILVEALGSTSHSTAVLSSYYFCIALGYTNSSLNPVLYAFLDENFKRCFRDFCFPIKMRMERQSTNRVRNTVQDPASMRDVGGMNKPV
T2 sequence (P32300 whole entry): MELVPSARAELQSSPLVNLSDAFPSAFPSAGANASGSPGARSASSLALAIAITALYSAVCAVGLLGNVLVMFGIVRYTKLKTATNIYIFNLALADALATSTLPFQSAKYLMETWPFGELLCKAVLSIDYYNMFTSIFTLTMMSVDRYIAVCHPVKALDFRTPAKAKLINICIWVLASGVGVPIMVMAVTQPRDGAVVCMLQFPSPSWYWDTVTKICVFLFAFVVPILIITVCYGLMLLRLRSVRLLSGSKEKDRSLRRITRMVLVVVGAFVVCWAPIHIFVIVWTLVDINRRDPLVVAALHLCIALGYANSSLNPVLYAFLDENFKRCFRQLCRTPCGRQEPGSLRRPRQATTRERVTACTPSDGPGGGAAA

C=CCN1CC[C@]23c4c5ccc(O)c4O[C@H]2C(NC(=S)Nc2ccc4c(c2)C(=O)OC42c4ccc(O)cc4Oc4cc(O)ccc42)CC[C@@]3(O)[C@H]1C5 (single isomer, unassigned) [FAN, N-(1-N-allyl-14-hydroxynordihydro-6δ-morphinanyl)-N'-fluorosceinyl thiourea]
Kd [1]: 18.9 nM

O=C1OC2(c3ccc(O)cc3Oc3cc(O)ccc32)c2ccc(NC(=S)NN=C(c3ccccc3)c3ccccc3)cc21 [6-FB, 1-(N)-fluoresceinyl benzophenone thiosemicarbazone, reference compound]
displacement of 3H-DHM (result in words) ([2]; 10^-6 M): inactive

C=CCN1CC[C@]23c4c5ccc(O)c4O[C@H]2C(=NNC(=S)Nc2ccc4c(c2)C(=O)OC42c4ccc(O)cc4Oc4cc(O)ccc42)CC[C@@]3(O)[C@H]1C5 [6-FN, 1-(N)-Fluoresceinyl Naloxone Thiosemicarbazone]
IC50 [3]: 17 nM | reversibility of 6-FN partial agonist activity by naloxone ([4]; 10^-6 M 6-FN, 10^-7 M naloxone): reversible with 10^-7 M naloxone | agonist activity of 6-FN in ileum ([4]; 10^-6 M (FIG. 2)): partial agonist activity; also recorded: slight agonist effect | inhibition of the agonist effect of normorphine ([4]; final 6-FN concentration 10^-7 M, added prior to normorphine): significantly inhibited the agonist effect of normorphine | antagonist effect relative to naloxone ([4]; inhibition of agonist effect of normorphine, compared with naloxone): ten times less effective | elimination of antagonist effect by washing ([4]; washing of the ileum specimen): did not readily eliminate the antagonist effect | Kd [5]: 11.5 nM | Hill coefficient [2]: 0.671 | binding activity in synaptosomal membranes (in words) [2]: sufficient binding activity

O=C1OC2(c3ccc(O)cc3Oc3cc(O)ccc32)c2ccc(NC(=S)NN=C3CC[C@@]4(O)[C@H]5Cc6ccc(O)c7c6[C@@]4(CCN5CC4CC4)[C@H]3O7)cc21 [6-FNX, 1-(N)-fluoresceinyl naltrexone thiosemicarbazone]
Kd [5]: 2.6 nM | Hill coefficient [2]: 0.675 | binding activity in synaptosomal membranes (in words) [2]: sufficient binding activity

CN1CC[C@]23c4c5ccc(O)c4O[C@H]2C(=NNC(=S)Nc2ccc4c(c2)C(=O)OC42c4ccc(O)cc4Oc4cc(O)ccc42)CC[C@@]3(O)[C@H]1C5 [6-FO, 1-(N)-fluoresceinyl oxymorphone thiosemicarbazone]
Kd [1]: 12.8 nM | Hill coefficient [2]: 0.989 | binding activity in synaptosomal membranes (in words) [2]: sufficient binding activity

C=CCN1CC[C@]23c4c5ccc(O)c4O[C@H]2C(=NNC(=S)Nc2ccc(-c4c6ccc(=[N+](C)C)cc-6oc6cc(N(C)C)ccc46)c(C(=O)[O-])c2)CC[C@@]3(O)[C@H]1C5 [6-RN, 1-(N)-tetramethylrhodaminyl-B-naloxone Thiosemicarbazone]
Kd [1]: 5.3 nM | Hill coefficient [2]: 1.09 | binding activity in synaptosomal membranes (in words) [2]: sufficient binding activity | IC50 ([2]; read-out: IC50 (concentration necessary for 50% displacement of 3H-DHM), rat brain synaptosomal plasma membranes, determined graphically): 12 nM

C[C@]12CC[C@@H]3c4ccc(O)cc4CC[C@H]3[C@@H]1CC[C@@H]2O [17-beta-estradiol, reference compound]
inhibitory effect on the contractions (in words) (mouse vas deferens): no inhibitory effect on the contractions | opioid antagonism, m.v.d. (mouse vas deferens): none of the steroids, EH, ADDH or 17-beta-estradiol, showed opioid antagonism | opioid antagonism, G.p.i. [6]: none of the steroids, EH, ADDH or 17-beta-estradiol, showed opioid antagonism

C[C@]12CCC(=NN)C=C1CC[C@@H]1[C@@H]2CC[C@]2(C)C(=NN)CC[C@@H]12 [ADDH, Δ^4 androstenedione-(3,17)-dihydrazone, reference compound]
inhibitory effect on the contractions (in words) (mouse vas deferens): inhibitory effects of magnitudes similar to NAL-E and NAL-AD-NAL | opioid antagonism, m.v.d. (mouse vas deferens): none of the steroids, EH, ADDH or 17-beta-estradiol, showed opioid antagonism | opioid antagonism, G.p.i. [6]: none of the steroids, EH, ADDH or 17-beta-estradiol, showed opioid antagonism

C[C@]12CC[C@@H]3c4ccc(O)cc4CC[C@H]3[C@@H]1CCC2=NN [EH, estrone hydrazone, reference compound]
inhibitory effect on the contractions (in words) (mouse vas deferens): inhibitory effects of magnitudes similar to NAL-E and NAL-AD-NAL | opioid antagonism, m.v.d. (mouse vas deferens): none of the steroids, EH, ADDH or 17-beta-estradiol, showed opioid antagonism | opioid antagonism, G.p.i. [6]: none of the steroids, EH, ADDH or 17-beta-estradiol, showed opioid antagonism

C=CCN1CC[C@]23c4c5ccc(O)c4O[C@H]2C(=NN=C2C=C4CC[C@@H]6[C@H](CC[C@]7(C)C(=NN=C8CC[C@@]9(O)[C@H]%10Cc%11ccc(O)c%12c%11[C@@]9(CCN%10CC=C)[C@H]8O%12)CC[C@@H]67)[C@@]4(C)CC2)CC[C@@]3(O)[C@H]1C5 [NAL-AD-NAL]
Kb (mouse vas deferens): 37 nM | inhibition of DALE-induced contractions of the m.v.d. (mouse vas deferens): 20-50% | Relative potency, bioassay M.V.D. (mouse vas deferens): 1.4 | t1/2 (half-time of recovery), mouse vas deferens (mouse vas deferens): 19 (14-24) min | reversal of antagonism by naloxone, m.v.d. (mouse vas deferens): not reversed by addition of naloxone | M.V.D./G.P.I. (relative affinity) (mouse vas deferens): 0.16 | Relative potency, binding assay Delta [7]: 3.4 | Relative affinity, delta [7]: 5 | delta affinity / selectivity (in words) [7]: not to show a high delta affinity | Relative potency, binding assay Mu [8]: 18.0 | Relative affinity, mu [8]: 78 | Ki [8]: 1.6 nM | mu receptor affinity (in words) ([8]; compared with naloxone): mu receptor affinity on the order of naloxone | Relative potency, bioassay G.P.I. [6]: 8.9 | reversal of antagonism by naloxone, G.p.i. [6]: Nor were the NAL-E or NAL-AD-NAL antagonisms in the G.p.i. reversed by naloxone | duration of action in the G.p.i. (in words) [6]: somewhat longer acting than their parent opioids | t1/2 (half-time of recovery), guinea-pig M. plexus [6]: 34 min | Kb [6]: 5.7 nM | Relative potency, binding assay Kappa [9]: 0.19 | Relative affinity, kappa [9]: 7

C=CCN1CC[C@]23c4c5ccc(O)c4O[C@H]2C(=NN=C2CC[C@H]4[C@@H]6CCc7cc(O)ccc7[C@H]6CC[C@]24C)CC[C@@]3(O)[C@H]1C5 [NAL-E]
Kb (mouse vas deferens): 5.8 nM | inhibition of DALE-induced contractions of the m.v.d. (mouse vas deferens): 20-50% | Relative potency, bioassay M.V.D. (mouse vas deferens): 8.8 | antagonist potency versus naloxone, m.v.d. (mouse vas deferens; antagonism of DALE effects): nine-fold more potent than naloxone | selectivity in antagonizing D-Ala2-Leu5-enkephalin effects (in words) (mouse vas deferens; compared with naloxone, delta-rich tissue): far more selective than naloxone | t1/2 (half-time of recovery), mouse vas deferens (mouse vas deferens): > 1000 min | duration / reversibility of antagonism in the m.v.d. (in words) (mouse vas deferens): very longlasting; also recorded: very long lasting effects | duration / reversibility of antagonism in the m.v.d. (in words) (mouse vas deferens; listed as NALE): almost irreversible in some observations | reversal of antagonism by naloxone, m.v.d. (mouse vas deferens): not reversed by addition of naloxone | M.V.D./G.P.I. (relative affinity) (mouse vas deferens): 12.0 | Relative potency, binding assay Delta [7]: 7.4 | Relative affinity, delta [7]: 70 | delta affinity / selectivity (in words) [7]: delta selective; also recorded: long lasting and selectively and preferentially bind delta-type opioid receptors | delta affinity / selectivity (in words) ([7]; listed as Nal-E): far more delta selective than naloxone | Relative potency, binding assay Mu [8]: 1.7 | Relative affinity, mu [8]: 16 | Ki [8]: 17 nM | Relative potency, bioassay G.P.I. [6]: 0.74 | reversal of antagonism by naloxone, G.p.i. [6]: Nor were the NAL-E or NAL-AD-NAL antagonisms in the G.p.i. reversed by naloxone | selectivity in antagonizing normorphine (in words) ([6]; compared with naloxone, mu-rich tissue): far less selective | duration of action in the G.p.i. (in words) [6]: somewhat longer acting than their parent opioids | t1/2 (half-time of recovery), guinea-pig M. plexus [6]: 27 min | Kb [6]: 69 nM | fold less potent than naloxone, G.p.i. ([6]; less potent than naloxone): 22 fold | Relative potency, binding assay Kappa [9]: 4.4 | Relative affinity, kappa [9]: 14

C=CCN1CC[C@]23c4c5ccc(O)c4O[C@H]2C(=NN=C2CC[C@@]4(O)[C@H]6Cc7ccc(O)c8c7[C@@]4(CCN6CC=C)[C@H]2O8)CC[C@@]3(O)[C@H]1C5 [naloxone azine]
persistence of binding (in words) (opioid receptors): long lasting effect

C=CCN1CC[C@]23c4c5ccc(O)c4O[C@H]2C(=O)CC[C@@]3(O)[C@H]1C5 [naloxone, reference compound]
t1/2 (half-time of recovery), guinea-pig M. plexus [6]: 15 min

O=C1CC[C@@]2(O)[C@H]3Cc4ccc(O)c5c4[C@@]2(CCN3CC2CC2)[C@H]1O5 [naltrexone]
suppression of feeding [10]: effective in suppressing feeding

Oc1ccc2c3c1O[C@H]1[C@@H](O)C=C[C@H]4[C@@H](C2)NCC[C@@]341 [normorphine, reference compound]
inhibition of contraction of the muscle (agonist effect) ([4]; 25 microliters, 10^-7 M): substantially inhibited contraction of the muscle
